Results published in publication PMC5652740, “Inhibition of HIV-1 infection in humanized mice and metabolic stability of protein phosphatase-1-targeting small molecule 1E7-03” (Oncotarget, 2017).
Values joined by “and” are separate entries in the source; they are usually repeats but may differ in a detail not shown here. Equal entries are not always repeated.

Tests used:
CEM T cells [1] = assay: Cellular permeability assay by LC/FT-MS; format: in vitro ADME; details: 10 μM, 24 hrs; for CEM T cell permeability, % of Total, Cells: accumulation in cell lysate
Description: CEM T cells were seeded in 6-well plates (0.5 × 10^6 cells/ml) and treated by 10 μM of the indicated compounds. Two samples were generated for each compound (in triplicates) obtained from cellular lysate and media sample. Cell culture media samples (100 μl) were collected from each well after 24 hrs of incubation and total protein was precipitated by the addition of 400 μl cold acetone. […] To obtain cell lysates, the cells were suspended in 300 μl cold whole cell lysis buffer (50 mM Tris-HCl, pH 7.5, 0.5 M NaCl, 1% NP-40, 0.1% SDS) and sonicated. A 100 μl aliquot of the cell lysate was combined with 400 μl cold acetone to precipitate proteins. All samples were centrifuged at 13,000 × g for 5 min. Supernatants containing compounds and their metabolites were collected and evaporated to dryness on SpeedVac concentrator. The dry pellet was reconstituted in 50 μl acetonitrile for LC/FT-MS analysis.

[2] = Pharmacokinetic analysis in mice after i.p. injection; format: in vivo; details: male, BALB/cJ, ip
Description: The animal facilities and protocols were approved by Howard University Institutional Animal Care and Use Committee (IACUC). All experimental procedures were in accordance with the NIH Guidelines for the Care and Use of Laboratory Animals. BALB/cJ male mice (8 weeks old, 25–30 g) were purchased from Jackson Laboratory (Bar Harbor, ME, USA) and housed under pathogen-free conditions in HEPA-filtered cages and kept on a 12 h light/dark cycle. Compounds were administered to mice via intraperitoneal (i.p.) injection with maximum achievable doses of 30 mg/kg 1E7-03 (100 μl injection of 8 mM 1E7-03 in 80% DMSO/20% saline) and 100 mg/kg DP1-07 (100 μl injection of 100 mM DP1-07 in 40% propylene glycol/10% DMSO/50% saline). Blood samples were collected at different time points (15 min, 30 min, 1 hr, 3 hr, 6 hrs and 24 hrs) for each group (n=3 mice per group). For each sample, 20 μl of plasma was mixed with 80 μl cold acetone, and centrifuged at 13,000 rpm for 5 min. The supernatant was transferred to a clean test tube and dried in a SpeedVac concentrator. The residue was re-constituted in 50 μl of acetonitrile for LC-MS analysis. Calibration curves were prepared by spiking 1E7-03, DP1, DP3 and DP1-07 into the drug-free mouse plasma and subjected to similar sample extraction procedures. The plasma concentration–time profile of each analyte was constructed and pharmacokinetic parameters were determined by non-compartmental method using Phoenix WinNonlin Version 5.3 (Pharsight Corporation, Mountain View, CA).
A 10 μl aliquots from each sample were loaded to a LC-20AD nano HPLC system (Shimadzu Corporation, Columbia, MD, USA) coupled to LTQ XL Orbitrap mass spectrometer (Thermo Fisher Scientific) with the installed Xcalibur software (version 2.0.7, Thermo Fisher Scientific). Liquid chromatography was carried out on an in-house made nano-HPLC column (Polymicro Technologies Inc., Phoenix, AZ, USA) packed with reverse phase PolySulfoethyl A, 5μM, 200 Å (PolyLC Inc., Columbia, MD, USA). Mobile phase A was 0.1% formic acid in water and mobile phase B - 0.1% formic acid in acetonitrile. The elution was performed at a flow rate of 600 nl/min over 40 min using a multisegment linear gradient of mobile phase B as follows: 0–6.02 min, 1% B; 6.02–6.11 min, 1–2% B; 6.11–20 min, 2−80% B; 20–25 min, 80% B; 25–30 min, 80–85% B; 30–31 min, […]; 31–40 min, 2% B (v/v). The Orbitrap was operated under data-dependent acquisition mode. The spray voltage, capillary temperature and capillary voltage were set to 2.0 kV, 200 °C, and 39.5 V, respectively. Full-scan mass spectra were acquired in Orbitrap over 150−1500 m/z with a resolution of 30 000, followed by MS^n scans by CID activation mode. The precursor ions were fragmented with collision energy of 18 with activation Q of 0.25 and an activation time of 30 ms. Dynamic exclusion was enabled with a repeat count of 2, a repeat duration of 15 s, exclusion duration of 20 s, an exclusion list size of 50. The mass spectrometer was also operated in NL scan of m/z 18.01, 45.05, 71.03 and 72.02 and MRM mode. The MRM transitions were controlled by a segmented program in order to short the scan cycle and increase sensitivity.

CEM T cells [3] = assay: Cell viability, trypan blue-based assay; details: 24 h; for effect on cell viability: up to 180 μM, in words
Description: CEM T cells were cultured in 96-well plates at 37°C and incubated with the indicated compound concentrations for 24 hrs. Cell viability was determined using trypan blue-based assay.

[4] = mouse plasma after i.p. 30 mg/kg 1E7-03, parent and its metabolites DP1, DP3, mean, n=3
[5] = mouse plasma after i.p. 30 mg/kg 1E7-03, parent and metabolites DP1, DP3
[6] = mouse, plasma, 30 mg/kg, mouse plasma after i.p. 30 mg/kg 1E7-03, parent and metabolites DP1, DP3
[7] = mouse plasma after i.p. 100 mg/kg DP1-07, parent and products DP1-07P1, DP1-07P2

For `COc1ccc(/C=C2\CCc3c2nc2ccccc2c3C(=O)OC(C)C(=O)O)cc1OC` (stereo not shown) [DP1], the “times less efficient cellular accumulation than 1E7-03” value (CEM T cells [1]; CEM T cells) was “more than 10 times”, the Cmax [2, 4] was 9.09 µM and the AUC(0-t) [2, 5] was 124 µM·h. The MRT last [2, 5] was 4.98 h, the half-life [2, 5] was 3.2 h and the Tmax [2, 6] was 3 h. The “effect on cell viability” value (CEM T cells [3]) was “no effect”.

`COc1ccc(/C=C2\CCc3c2nc2ccccc2c3C(=O)O)cc1OC` [DP3] gave a Cmax [2, 4] of 3.61 µM, an AUC(0-t) [2, 5] of 30.7 µM·h and an MRT last [2, 5] of 4.39 h. For the same compound, the half-life [2, 5] was 2.44 h, the Tmax [2, 6] was 1 h and the “effect on cell viability” value (CEM T cells [3]) was “no effect”.

In the case of `COc1ccc(/C=C2\CCCc3c2nc2ccccc2c3C(=O)OC(C)C(=O)OC(C)(C)C)cc1OC` (stereo not shown) [DP1-07], the “CEM T cell permeability, % of Total, Cells” value (CEM T cells [1]; 37°C) is reported as 2.7% and 2.73%, the “CEM T cell permeability, % of Total, Media” value (CEM T cells [1]; 37°C, amount in media) is reported as 97.27% and the AUC(0-t) [2, 7] is reported as 706 µM·h. It also gave an MRT last [2, 7] of 10.7 h, a half-life [2, 7] of 14.3 h and a Cmax ([2]; mouse plasma after i.p. 100 mg/kg DP1-07, parent and products DP1-07P1, DP1-07P2 (quantified with DP1 and DP3 calibration curves)) of 42.7 µM. For the same compound, the Tmax ([2]; mouse, plasma, 100 mg/kg, mouse plasma after i.p. 100 mg/kg DP1-07, parent and products DP1-07P1, DP1-07P2) was about 6 h and the concentration at 24 h ([2]; mouse, plasma, i.p. 100 mg/kg DP1-07, 24 hrs, read-out: concentration present in murine blood 24 hrs post-injection) was 18 µM.

With `CCNC(=O)NC(=O)C(C)OC(=O)c1c2c(nc3ccccc13)/C(=C/c1ccc(OC)c(OC)c1)CC2` (stereo not shown) [1E7-03] the “CEM T cell permeability, % of Total, Cells” value (CEM T cells [1]; 37°C) was 3%, the Cmax [2, 4] was 3.43 µM and the AUC(0-t) [2, 5] was 12.2 µM·h. It also gave an MRT last [2, 5] of 2.4 h, a half-life [2, 5] of 3.39 h and a Tmax [2, 6] of 0.5 h. The viability reduction (CEM T cells [3]; highest tested 180 μM) was “about 30%”.
